Measured values as given in patent US8173693B2, “Benzenesulfonamide derivatives and pharmaceutical composition thereof” (Purzer Pharmaceutical Co., Ltd., priority 2010, dated 2012).
Values joined by “and” are separate entries in the source; they are usually repeats but may differ in a detail not shown here. Identical values can stand only once.

Assays:
[1] = test system: Human Bladder Cancer TSGH cells; assay: MTT assay; format: cell-based; details: 72 hr
Protocol: (§1) Human Bladder Cancer TSGH cells, Human hepatoblastoma HepG2 cells, Human colorectal adenocarcinoma HT-29 cells, human nasopharyngeal carcinoma KB cells, Human gastric adenocarcinoma AGS cells, Human breast carcinoma MCF-7 cells, lung carcinoma A549 cells, and Human prostate carcinoma PC-3 cells were used in the preliminary cytotoxicity assays of the benzenesulfonamide derivatives of the present invention, and the inhibition activity against the tumor cells was evaluated.
(§2) All cell lines were maintained in RPMI 1640 supplied with 10% fetal bovine serum and maintained in a humidified chamber at 37° C. containing 5% CO2. Then, all cell lines were treated with compounds for 72 hr and subsequently incubated with 0.4 mg/mL of MTT at 37° C. for 2 hr. The medium was removed, and DMSO was added to dissolve MTT precipitate. Cell proliferation was determined by measuring the optical density at 540 nm using a Thermomax microplate reader (Molecular Devices, Sunnyvale, Calif.), and the IC50 values of the benzenesulfonamide derivatives of the present invention were calculated.

[2] = test system: Human colorectal adenocarcinoma HT-29 cells; assay: MTT assay; format: cell-based; details: 72 hr
Protocol: as §1, §2

[3] = test system: Human hepatoblastoma HepG2 cells; assay: MTT assay; format: cell-based; details: 72 hr, read-out: IC50 HepaG2
Protocol: as §1, §2

[4] = test system: human nasopharyngeal carcinoma KB cells; assay: MTT assay; format: cell-based; details: Homo sapiens, KB; MTT assay, 72 hr
Protocol: as §1, §2

[5] = test system: tumor cells; assay: Preliminary cytotoxicity assays (MTT, SRB), tumor cell panel; format: cell-based; details: comparison over Tables 1-4
Protocol: as §1, §2
All cell lines were maintained in RPMI 1640 supplied with 10% fetal bovine serum into 96-well microtiter plates and maintained in a humidified chamber at 37° C. containing 5% CO2. After 24 hr, cell lines in partial wells were fixed in situ with 10% trichloroacetic acid (TCA) to represent a measurement at the time of drug addition (T0). Then, cell lines in other wells were incubated with the benzenesulfonamide derivatives of the present invention for an additional 48 hr, and fixed in situ with 10% TCA to represent a measurement at the time of stopping reaction (Tx). […] Cell proliferation was determined by measuring the optical density at 515 nm using a Thermomax microplate reader (Molecular Devices, Sunnyvale, Calif.). The half-inhibition concention (GI50) of the benzenesulfonamide derivatives of the present invention was obtained from the detected optical density.

[6] = test system: Human breast carcinoma MCF-7 cells; assay: SRB assay; format: cell-based; details: MCF7, 48 hr
Protocol: as §1
(§3) All cell lines were maintained in RPMI 1640 supplied with 10% fetal bovine serum into 96-well microtiter plates and maintained in a humidified chamber at 37° C. containing 5% CO2. After 24 hr, cell lines in partial wells were fixed in situ with 10% trichloroacetic acid (TCA) to represent a measurement at the time of drug addition (T0). Then, cell lines in other wells were incubated with the benzenesulfonamide derivatives of the present invention for an additional 48 hr, and fixed in situ with 10% TCA to represent a measurement at the time of stopping reaction (Tx). After rinsing the plates with PBS and air-drying, 0.4% sulforhodamine B solution (weight per volume in 1% acetic acid) was added to each well and the plates were incubated for 10 min at room temperature. Unbound sulforhodamine B was removed with 1% acetic acid and the plates were air-dried. Cells bound with sulforhodamine B was subsequently solubilized with 10 mM Tris base (Trizma; Sigma). Cell proliferation was determined by measuring the optical density at 515 nm using a Thermomax microplate reader (Molecular Devices, Sunnyvale, Calif.). The half-inhibition concention (GI50) of the benzenesulfonamide derivatives of the present invention was obtained from the detected optical density.

[7] = test system: Human colorectal adenocarcinoma HT-29 cells; assay: SRB assay; format: cell-based; details: 48 hr
Protocol: as §1, §3

[8] = test system: Human gastric adenocarcinoma AGS cells; assay: SRB assay; format: cell-based; details: 48 hr
Protocol: as §1, §3

[9] = test system: Human hepatoblastoma HepG2 cells; assay: SRB assay; format: cell-based; details: 48 hr
Protocol: as §1, §3

[10] = test system: Human prostate carcinoma PC-3 cells; assay: SRB assay; format: cell-based; details: Homo sapiens; for GI50: PC-3, 48 h; for IC50: PC-3, 48 hr
Protocol: as §1, §3

[11] = test system: lung carcinoma A549 cells; assay: SRB assay; format: cell-based; details: Homo sapiens, 48 hr
Protocol: as §1, §3

[12] = test system: Human colorectal adenocarcinoma HT-29 cells; assay: SRB assay; format: cell-based; details: 48 hr; remark: listed apart in the source
[13] = test system: Human gastric adenocarcinoma AGS cells; assay: SRB assay; format: cell-based; details: 48 hr; remark: listed apart in the source
[14] = test system: Human breast carcinoma MCF-7 cells; assay: SRB assay; format: cell-based; details: MCF7, 48 hr; remark: listed apart in the source
[15] = test system: lung carcinoma A549 cells; assay: SRB assay; format: cell-based; details: Homo sapiens, 48 hr; remark: listed apart in the source
[16] = test system: Human hepatoblastoma HepG2 cells; assay: SRB assay; format: cell-based; details: 48 hr; remark: listed apart in the source
[17] = test system: 4T1-Luc cells; assay: In vivo evaluation, short-time treatment, mice implanted with 4T1-Luc cells; details: short-time treatment, GM119 25 mg/kg, Taxol 10 mg/kg
Protocol: GM119 (25 mg/kg) was applied to a mouse implanted with 4T1-Luc cells for a short time, and then Taxol (10 mg/kg) was applied thereto to observe the effect of GM119 on the 4T1-Luc cells.
(§4) A suspension of 4T1-Luc cells in matrigel was injected into the breast adipocyte to obtain mice implanted with luciferase tumor cells. […] When the size of the tumor cells was achieved to 200-500 mm^3, the mice were divided into 2 groups, and the number of the mice in each group is ≧5. Then, 0 or 25 mg/kg of GM119 was abdominal-injected into the mice for 5 days, wherein GM119 was dissolved in cremophor, and the volume of injection to each mouse is 50 μl. Then, 0 or 10 mg/kg of Taxol was abdominal-injected into the mice for every 2 days until death of the mice. The weight and the number of the mice were recorded every day to analyze the change on the weight and the survival time of the mice. After the drugs were applied to the mice, the size of the tumor cells in the mice was evaluated with bioluminescence every two days.

[18] = test system: 4T1-Luc cells; assay: In vivo evaluation, long-time treatment, mice implanted with 4T1-Luc cells
Protocol: GM119 (25 mg/kg) and Taxol (10 mg/kg) were simultaneously applied to a mouse implanted with 4T1-Luc cells for a long time to observe the effect of GM119 on the 4T1-Luc cells.
as §4, with “Then, 0/0, 0/25, 10/[…],” for “Then, 0”, “or 10/0” for “or 25”, “of Taxol/GM119” for “of GM119”, “mice every two days until death of the mice,” for “mice for 5 days,”, “GM119 and Taxol were” for “GM119 was”, “μl.” for “μl. Then, 0 or 10 mg/kg of Taxol was abdominal-injected into the mice for every 2 days until death of the mice.”

[19] = test system: colon 38 cells; details: Owa et al., J. Med. Chem. 1999, 42, 3789-3799; read-out: IC50 against colon 38 cells; cited from earlier work
[20] = test system: KB cells; details: Owa et al., J. Med. Chem. 1999, 42, 3789-3799; read-out: IC50 against KB cells; cited from earlier work
[21] = test system: P388 murine leukemia cells; details: Owa et al., J. Med. Chem. 1999, 42, 3789-3799; read-out: IC50 against P388 murine leukemia cells; cited from earlier work
[22] = background statement; cited from earlier work

| SMILES | melting point [°C] | GI50 [6] [µM] | GI50 [7] [µM] | GI50 [8] [µM] | GI50 [9] [µM] | GI50 [10] [µM] | IC50 [10] [µM] | GI50 [11] [µM] | IC50 [12] [µM] | IC50 [13] [µM] | IC50 [14] [µM] | IC50 [15] [µM] | IC50 [16] [µM] | further results |
| --- | --- | --- | --- | --- | --- | --- | --- | --- | --- | --- | --- | --- | --- | --- |
| O=[N+]([O-])c1ccc(/N=N/c2c[nH]c3c(NS(=O)(=O)c4ccc(Cl)cc4)cccc23)cc1 [Compound 7a, 4-Chloro-N-[3-(4-nitrophenylazo)-1H-indol-7-yl]benzenesulfonamide] | 217 to 218 | – | – | – | – | – | – | – | – | – | – | – | – | IC50 [1]: 3.6 µM; IC50 [2]: 5.9 µM; IC50 [3]: 9.1 µM; IC50 [4]: 4.5 µM; inhibitory activity against the tumor cells (in words) [5]: higher than that of the compound 5d |
| COc1ccc(S(=O)(=O)N(c2cccc3c2[nH]c2c(C)ccc(C)c23)C(C)C)cc1 [Compound 18c, N-(5,8-Dimethyl-9H-carbazol-1-yl)-N-isopropyl-4-methoxybenzenesulfonamide] | 222 to 224 | 9.5 | 0.2 | 0.5 | 0.5 | 4 | 9.4 | 7.8 | 0.7 | > 10 | > 10 | > 10 | 1.6 | – |
| COc1ccc(S(=O)(=O)N(C)c2cccc3c2[nH]c2c(C)ccc(C)c23)cc1 [Compound 15c, N-(5,8-Dimethyl-9H-carbazol-1-yl)-N-methyl-4-methoxybenzenesulfonamide] | 88 to 89 | > 10 | > 10 | > 10 | > 10 | > 10 | > 10 | > 10 | > 10 | > 10 | > 10 | > 10 | > 10 | – |
| COc1ccc(S(=O)(=O)Nc2cccc3c2[nH]c2ccccc23)cc1 [Compound 21a, N-(9H-Carbazol-1-yl)-4-methoxybenzenesulfonamide] | 204 to 206 | 0.07 | 0.03 | 0.01 | 0.04 | 0.2 | > 10 | 0.9 | 0.07 | 0.07 | 4.4 | 1.7 | 0.08 | – |
| Cc1ccc(C)c2c1[nH]c1c(N(C)S(=O)(=O)c3cccc(C(F)(F)F)c3)cccc12 [Compound 15j, N-(5,8-Dimethyl-9H-carbazol-1-yl)-N-methyl-3-trifluoromethylbenzenesulfonamide] | 192 to 194 | 7.8 | 5.6 | 7.8 | > 10 | > 10 | > 10 | > 10 | 10 | > 10 | > 10 | > 10 | > 10 | – |
| CC(=O)O[C@H]1C(=O)[C@@]2(C)[C@H]([C@H](OC(=O)c3ccccc3)[C@]3(O)C[C@H](OC(=O)[C@H](O)[C@@H](NC(=O)c4ccccc4)c4ccccc4)C(C)=C1C3(C)C)[C@]1(OC(C)=O)CO[C@@H]1C[C@@H]2O [Taxol, reference compound] | – | – | – | – | – | – | – | – | – | – | – | – | – | growth of the tumor cells (bioluminescence) [17]: the growth of the tumor cells can be inhibited; survival of the mice ([18]; long time: Taxol 10 mg/kg and/or GM119 25 mg/kg abdominal-injected every two days until death, FIG. 3): the survival of the mice can be increased; growth of the tumor cells (bioluminescence) ([18]; long-time treatment): the growth of the tumor cells can be inhibited |
| O=S(=O)(Nc1cccc2c(/N=N/c3ccccc3)c[nH]c12)c1ccc(Cl)cc1 [Compound 7c, 4-Chloro-N-(3-phenylazo-1H-indol-7-yl)benzenesulfonamide] | 110 to 111 | – | – | – | – | – | – | – | – | – | – | – | – | IC50 [1]: 14.2 µM; IC50 [2]: 13.8 µM; IC50 [3]: 28.4 µM; IC50 [4]: 15.3 µM; inhibitory activity against the tumor cells (in words) [5]: higher than that of the compound 5d |
| NS(=O)(=O)c1ccc(S(=O)(=O)Nc2cccc3c(Cl)c[nH]c23)cc1 [Compound E7070] | – | – | – | – | – | – | – | – | – | – | – | – | – | IC50 [19]: 0.26 µM and 0.3 µM; IC50 [20]: 11.4 µM; IC50 [21]: 1.2 µM |
| CCCN(c1cccc2c1[nH]c1c(C)ccc(C)c12)S(=O)(=O)c1ccc(OC)cc1 [Compound 17c, N-(5,8-Dimethyl-9H-carbazol-1-yl)-N-propyl-4-methoxybenzenesulfonamide] | 60 to 62 | 6.1 | 0.3 | 0.6 | 0.8 | 3.5 | 8.6 | 5.9 | 0.8 | > 10 | > 10 | 10 | 1.9 | – |
| COc1ccc(S(=O)(=O)Nc2cccnc2Nc2ccc(O)cc2)cc1 [Compound E7010] | – | – | – | – | – | – | – | – | – | – | – | – | – | anti-cancer activity in mice [22]: shows great effect |
